± gives the expanded uncertainty stated by the source.
Test: xn = mol fraction of the nth substance listed
Settings: 100 kPa, Liquid; for mass density: Vibrating tube method; for speed of sound: Frequency=5 MHz, Pulse-echo method

OCCOCCOCCO [triethylene glycol] + O
Settings	mass density [kg/m3]	speed of sound [m/s]
313.15 K, x1 = 0.8975	1107.54 ± 0.28	–
313.15 K, x1 = 0.9203	1107.65 ± 0.29	–
313.15 K, x1 = 0.9514	1107.8 ± 0.3	–
313.15 K, x1 = 0.9692	1107.89 ± 0.3	–
313.15 K, x1 = 1	1108.03 ± 0.32	–
318.15 K, x1 = 0.000584	–	1538.5 ± 1.2
318.15 K, x1 = 0.002006	–	1542.9 ± 1.2
318.15 K, x1 = 0.004375	–	1550 ± 1.2
318.15 K, x1 = 0.01026	–	1566.6 ± 1.1
318.15 K, x1 = 0.0107	1001.51 ± 0.23	–
318.15 K, x1 = 0.01483	–	1578.5 ± 1.1
318.15 K, x1 = 0.02047	1010.75 ± 0.2	–
318.15 K, x1 = 0.0207	–	1592.6 ± 1.1
318.15 K, x1 = 0.02817	–	1608.6 ± 1.1
318.15 K, x1 = 0.0344	–	1620.5 ± 1.1
318.15 K, x1 = 0.03972	1026.32 ± 0.19	–
318.15 K, x1 = 0.04361	–	1635.9 ± 1.1
318.15 K, x1 = 0.04979	1033.27 ± 0.17	–
318.15 K, x1 = 0.05146	–	1647.1 ± 1.1
318.15 K, x1 = 0.05903	–	1656.4 ± 1.1
318.15 K, x1 = 0.06571	–	1663.4 ± 1.1
318.15 K, x1 = 0.06996	1045.13 ± 0.15	–
318.15 K, x1 = 0.07299	–	1670 ± 1.1
318.15 K, x1 = 0.08294	–	1677.4 ± 1.1
318.15 K, x1 = 0.09126	–	1682.2 ± 1.1
318.15 K, x1 = 0.09424	1056.41 ± 0.14	–
318.15 K, x1 = 0.09661	–	1684.8 ± 1.1
318.15 K, x1 = 0.1018	–	1686.8 ± 1.1
318.15 K, x1 = 0.1056	–	1688.1 ± 1.1
318.15 K, x1 = 0.1135	–	1690.2 ± 1.1
318.15 K, x1 = 0.1255	–	1692.2 ± 1.1
318.15 K, x1 = 0.1394	–	1692.8 ± 1.1
318.15 K, x1 = 0.1396	–	1692.8 ± 1.1
318.15 K, x1 = 0.1432	–	1692.7 ± 1.1
318.15 K, x1 = 0.1481	1073.27 ± 0.14	–
318.15 K, x1 = 0.1521	–	1692.1 ± 1.1
318.15 K, x1 = 0.1731	–	1689 ± 1.1
318.15 K, x1 = 0.1931	–	1684.5 ± 1.1
318.15 K, x1 = 0.2006	1082.92 ± 0.14	–
318.15 K, x1 = 0.2076	–	1680.7 ± 1.1
318.15 K, x1 = 0.2502	1088.64 ± 0.14	–
318.15 K, x1 = 0.2511	–	1667.7 ± 1.1
318.15 K, x1 = 0.2988	1092.38 ± 0.14	–
318.15 K, x1 = 0.3044	–	1651.8 ± 1.1
318.15 K, x1 = 0.3492	1095.09 ± 0.15	–
318.15 K, x1 = 0.3572	–	1637.7 ± 1.1
318.15 K, x1 = 0.3925	1096.8 ± 0.16	–
318.15 K, x1 = 0.4142	–	1624.4 ± 1.1
318.15 K, x1 = 0.4502	1098.53 ± 0.17	–
318.15 K, x1 = 0.4877	1099.4 ± 0.17	–
318.15 K, x1 = 0.4989	–	1607.6 ± 1.2
318.15 K, x1 = 0.5004	1099.66 ± 0.17	–
318.15 K, x1 = 0.5739	1100.92 ± 0.19	–
318.15 K, x1 = 0.58	1101 ± 0.19	–
318.15 K, x1 = 0.6427	–	1585.5 ± 1.2
318.15 K, x1 = 0.6465	1101.82 ± 0.2	–
318.15 K, x1 = 0.651	1101.87 ± 0.2	–
318.15 K, x1 = 0.7008	1102.35 ± 0.22	–
318.15 K, x1 = 0.7471	1102.73 ± 0.23	–
318.15 K, x1 = 0.7677	1102.88 ± 0.23	–
318.15 K, x1 = 0.7971	–	1571.3 ± 1.3
318.15 K, x1 = 0.82	1103.22 ± 0.25	–
318.15 K, x1 = 0.8623	1103.46 ± 0.26	–
318.15 K, x1 = 0.8792	1103.55 ± 0.27	–
318.15 K, x1 = 0.8865	–	1565.1 ± 1.3
318.15 K, x1 = 0.8975	1103.64 ± 0.27	–
318.15 K, x1 = 0.9203	1103.76 ± 0.28	–
318.15 K, x1 = 0.9514	1103.9 ± 0.29	–
318.15 K, x1 = 0.9641	–	1559.6 ± 1.4
318.15 K, x1 = 0.9692	1103.99 ± 0.3	–
318.15 K, x1 = 1	1104.13 ± 0.31	1554.7 ± 1.4
323.15 K, x1 = 0.0107	999.177 ± 0.23	–
323.15 K, x1 = 0.02047	1008.26 ± 0.2	–
323.15 K, x1 = 0.03972	1023.56 ± 0.19	–
323.15 K, x1 = 0.04979	1030.37 ± 0.17	–
323.15 K, x1 = 0.06996	1041.99 ± 0.15	–
323.15 K, x1 = 0.09424	1053.04 ± 0.14	–
323.15 K, x1 = 0.1481	1069.57 ± 0.13	–
323.15 K, x1 = 0.2006	1079.07 ± 0.14	–
323.15 K, x1 = 0.2502	1084.73 ± 0.14	–

— the NIST ThermoML archive (doi:10.1016/j.jct.2015.05.024)
